SMILES	melting point
O=C(NCC1CCCCC1)c1cccnc1Oc1cncc(Cl)c1 [Example 58, 2-(5-Chloro-pyridin-3-yloxy)-N-cyclohexylmethyl-nicotinamide]	95 to 97 °C
O=C(NCc1ccc(O)cc1)c1cccnc1Oc1cccnc1 [Example 104, N-(4-Hydroxy-benzyl)-2-(pyridin-3yloxy)-nicotinamide]	156 to 158 °C
CC(C)(O)C1CCC(CNC(=O)c2cccnc2Oc2cccc(C#N)c2)CC1 (centres unmarked) [Example 214, 2-(3-Cyano-phenoxy)-N-[4-(1-hydroxy-1-methyl-ethyl)-cyclohexylmethyl]-nicotinamide]	129 to 130 °C
CC(C)(O)C1CCC(CNC(=O)c2cccnc2Oc2ccc(F)c(C#N)c2)CC1 (centres unmarked) [Example 322, 2-(3-Cyano-4-fluoro-phenoxy)-N-[4-(1-hydroxy-1-methyl-ethyl)-cyclohexylmethyl]-nicotinamide]	85 to 88 °C
CC(=O)c1cccc(Oc2ncccc2NC(=O)Cc2ccc(C(C)(C)O)cc2)c1 [Example 213, N-[2-(3-Acetyl-phenoxy)-pyridin-3-yl]-2-[4-(1-hydroxy-1-methyl-ethyl)-phenyl]-acetamide]	85 to 87 °C
CC(C)(O)[C@H]1CC[C@H](CNC(=O)c2cccnc2Oc2ccc(F)c(F)c2)CC1 [Example 240, trans-2-(3,4-Difluoro-phenoxy)-N-[4-(1-hydroxy-1-methyl-ethyl)-cyclohexylmethyl]-nicotinamide]	80 to 82 °C
CC(=O)c1cccc(Oc2ncccc2C(=O)NCc2ccc([C@@H](C)O)cc2)c1 [Example 307, (R)-(+)-2-(3-Acetyl-phenoxy)-N-(4-(1-hydroxy-ethyl)-benzyl)-nicotinamide]	104 to 106 °C
CC(C)(O)c1ccc(CNC(=O)c2cccnc2Oc2cccnc2)cc1 [Example 36, N-[4-(1-Hydroxy-1-methyl-ethyl)-benzyl]-2-(pyridin-3-yloxy)-nicotinamide]	79 to 81 °C
O=C(NCc1ccc2c(c1)OCO2)c1cccnc1Oc1cccnc1 [Example 182, N-Benzo[1,3]dioxol-5-ylmethyl-2-(pyridin-3-yloxy)-nicotinamide]	130 to 131 °C
CC(C)(O)c1ccc(CNC(=O)c2cccnc2Oc2cccc(Cl)c2)cc1 [Example 187, 2-(3-Chloro-phenoxy)-N-[4-(1-hydroxy-1-methyl-ethyl)-benzyl]-nicotinamide]	57 to 59 °C
CC(=O)c1cccc(Oc2ncccc2C(=O)NCc2ccncc2)c1 [Example 220, 2-(3-Acetyl-phenoxy)-N-pyridin-4-ylmethyl-nicotinamide]	148 to 150 °C
Cc1ccc(CNC(=O)c2cccnc2Oc2cncc(Cl)c2)o1 [Example 53, 2-(5-Chloro-pyridin-3-yloxy)-N-(5-methyl-furan-2-ylmethyl)-nicotinamide]	103 to 105 °C
COc1cccc(Oc2ncccc2C(=O)NCc2ccc(C(C)(C)O)cc2)c1 [Example 201, N-[4-(1-Hydroxy-1-methyl-ethyl)-benzyl]-2-(3-methoxy-phenoxy)-nicotinamide]	69 to 71 °C
COc1ccccc1NC(=O)Nc1cccc(Oc2ncccc2C(=O)NCc2ccccc2Cl)c1 [Example 138, N-(2-Chloro-benzyl)-2-(3-[3-(2-methoxy-phenyl)-ureido]-phenoxy}-nicotinamide]	180 to 182 °C
CC(C)(O)c1ccc(CC(=O)Nc2cccnc2Oc2cccnc2)cc1 [Example 211, 2-[4-(1-Hydroxy-1-methyl-ethyl)-phenyl]-N-[2-(pyridin-3-yloxy)-pyridin-3-yl]-acetamide]	122 to 124 °C
O=C(Cc1ccccc1)c1cccnc1Oc1ccc(F)cc1 [Example 264, 1-[2-(4-Fluoro-phenoxy)-pyridin-3-yl]-2-phenyl-ethanone]	81 to 82 °C
Cc1ccc(C(C)NC(=O)c2cccnc2Oc2cccnc2)s1 (centres unmarked) [Example 17, N-[1-(5-Methyl-thiophen-2-yl)-ethyl]-2-(pyridin-3-yloxy)-nicotinamide]	162 to 164 °C
CC(C)(O)c1ccc(CC(=O)Nc2cccnc2Oc2ccc(F)cc2)cc1 [Example 203, N-[2-(4-Fluoro-phenoxy)-pyridin-3-yl]-2-[4-(1-hydroxy-1-methyl-ethyl)-phenyl]-acetamide]	135 to 137 °C
O=C(NCc1ccccc1Cl)c1cccnc1Oc1cccc(C(F)(F)F)c1 [Example 184, N-(2-Chloro-benzyl)-2-(3-trifluoromethyl-phenoxy)-nicotinamide]	88 to 90 °C
Cc1ccc(CNC(=O)c2cccnc2Oc2cccnc2)o1 [Example 19, N-(5-Methyl-furan-2-ylmethyl)-2-(pyridin-3-yloxy)-nicotinamide]	65 to 67 °C
CCOC(=O)C1CCC(CNC(=O)c2cccnc2Oc2cccc(C(N)=O)c2)CC1 (centres unmarked) [Example 295, 4-({[2-(3-Carbamoyl-phenoxy)-pyridine-3-carbonyl]-amino}-methyl)-cyclohexanecarboxylic acid ethyl ester]	160 to 162 °C
CC(O)c1ccc(CNC(=O)c2cccnc2Oc2cccnc2)s1 (centres unmarked) [Example 160, N-[5-(1-Hydroxy-ethyl)-thiophen-2-ylmethyl]-2-(pyridin-3yloxy)-nicotinamide]	92 to 94 °C
CC(=O)c1ccc(Oc2ncccc2C(=O)NCc2ccc(C(C)(C)O)cc2)cc1 [Example 236, 2-(4-Acetyl-phenoxy)-N-[4-(1-hydroxy-1-methyl-ethyl)-benzyl]-nicotinamide]	95 to 97 °C
CC(=O)c1cccc(Oc2ncccc2C(=O)NCc2ccccc2Cl)c1 [Example 222, 2-(3-Acetyl-phenoxy)-N-(2-chloro-benzyl)-nicotinamide]	140 to 142 °C
CC(=O)c1cccc(Oc2ncccc2C(=O)NCc2ccc([C@H](C)O)cc2)c1 [Example 306, (S)-(−)-2-(3-Acetyl-phenoxy)-N-(4-(1-hydroxy-ethyl)-benzyl)-nicotinamide]	102 to 104 °C
CC(C)(O)[C@H]1CC[C@H](CNC(=O)c2cccnc2Oc2ccc(F)cc2F)CC1 [Example 239, trans-2-(2,4-Difluoro-phenoxy)-N-[4-(1-hydroxy-1-methyl-ethyl)-cyclohexylmethyl]-nicotinamide]	92 to 94 °C
CC(=O)c1cccc(Oc2ncccc2C(=O)NCc2ccc(C(C)(C)O)cc2)c1 [Example 221, 2-(3-Acetyl-phenoxy)-N-[4-(1-hydroxy-1-methyl-ethyl)-benzyl]-nicotinamide]	52 to 54 °C
O=C(COc1ccccc1)c1cccnc1Oc1ccc(F)cc1 [Example 265, 1-[2-(4-Fluoro-phenoxy)-pyridin-3-yl]-2-phenoxy-ethanone]	105.5 to 106.5 °C

The remaining lines, values ahead:

melting point	SMILES
116 to 118 °C	O=C(NCc1ccc(Cl)o1)c1cccnc1Oc1ccc(F)cc1 [Example 63, N-(5-Chloro-furan-2-ylmethyl)-2-(4-fluoro-phenoxy)-nicotinamide]
129 to 131 °C	O=C(NCc1ccc(F)cc1)c1cccnc1Oc1cccnc1 [Example 28, N-(4-Fluoro-benzyl]-2-(pyridin-3-yloxy)-nicotinamide]
89 to 91 °C	O=C(NCc1cccs1)c1cccnc1Oc1ccc(F)cc1 [Example 1, 2-(4-Fluoro-phenoxy)-N-thiophen-2-ylmethyl-nicotinamide]
110 to 112 °C	O=C(NCC1CCC(O)CC1)c1cccnc1Oc1ccc(F)cc1 (centres unmarked) [Example 288, 2-(4-Fluoro-phenoxy)-N-(4-hydroxy-cyclohexylmethyl)-nicotinamide]
94 to 96 °C	O=C(NCc1cc(Cl)cs1)c1cccnc1Oc1cncc(Cl)c1 [Example 55, 2-(5-Chloro-pyridin-3-yloxy)-N-(4-chloro-thiophen-2-ylmethyl)-nicotinamide]
101 to 103 °C	Nc1cccc(Oc2ncccc2C(=O)NCc2ccccc2Cl)c1 [Example 144, 2-(3-Amino-phenoxy)-N-(2-chloro-benzyl)-nicotinamide]
111 to 113 °C	O=C(NCc1ccc(Cl)o1)c1cccnc1Oc1cncc(Cl)c1 [Example 57, N-(5-Chloro-furan-2-ylmethyl)-2-(5-chloro-pyridin-3-yloxy)-nicotinamide]
159 °C	Cc1cnc(CNC(=O)c2cccnc2Oc2ccc(F)cc2)cn1 [Example 209, 2-(4-Fluoro-phenoxy)-N-(5-methyl-pyrazin-2-ylmethyl)-nicotinamide]
132 to 134 °C	O=C(NCc1scc(Cl)c1Cl)c1cccnc1Oc1ccc(F)cc1 [Example 68, N-(3,4-Dichloro-thiophen-2-ylmethyl)-2-(4-fluoro-phenoxy)-nicotinamide]
127 to 128 °C	O=C(NCc1ccc(N2CCCC2)cc1)c1cccnc1Oc1ccc(F)cc1 [Example 89, 2-(4-Fluoro-phenoxy)-N-(4-pyrrolidin-1-yl-benzyl)-nicotinamide]
155 to 157 °C	O=C(NCc1ccc([N+](=O)[O-])cc1)c1cccnc1Oc1ccc(F)cc1 [Example 72, 2-(4-Fluoro-phenoxy)-N-(4-nitro-benzyl)-nicotinamide]
157 to 159 °C	O=C1COC(CNC(=O)c2cccnc2Oc2ccc(F)cc2)CN1 (centres unmarked) [Example 216, 2-(4-Fluoro-phenoxy)-N-(5-oxo-morpholin-2-ylmethyl)-nicotinamide]
122 to 124 °C	O=C(NCc1ccccc1Cl)c1cccnc1Oc1ccc(F)cc1F [Example 10, N-(2-Chloro-benzyl)-2-(2,4-difluoro-phenoxy)-nicotinamide]
69 to 70 °C	O=C(CCc1cc(F)cc(F)c1)c1cccnc1Oc1ccc(F)cc1 [Example 254, 3-(3,5-Difluoro-phenyl)-1-[2-(4-fluoro-phenoxy)-pyridin-3-yl]-propan-1-one]
92 to 93 °C	O=C(COc1ccccc1Cl)c1cccnc1Oc1ccc(F)cc1 [Example 266, 2-(2-Chloro-phenoxy)-1-[2-(4-fluoro-phenoxy)-pyridin-3-yl]-ethanone]
180 to 182 °C	O=C1Cc2cc(CNC(=O)c3cccnc3Oc3ccc(F)cc3)ccc2N1 [Example 73, 2-(4-Fluoro-phenoxy)-N-(2-oxo-2,3-dihydro-1H-indol-5-ylmethyl)-nicotinamide]

— patent publication US6380218B1, “Nicotinamide derivatives” (Pfizer Inc, priority 1997, dated 2002)
